Results: ChEMBL document CHEMBL3779840, “Discovery of 2-((3-Amino-4-methylphenyl)amino)-N-(2-methyl-5-(3-(trifluoromethyl)benzamido)phenyl)-4-(methylamino)pyrimidine-5-carboxamide (CHMFL-ABL-053) as a Potent, Selective, and Orally Available BCR-ABL/SRC/p38 Kinase Inhibitor for Chronic Myeloid Leukemia” (J Med Chem, 2016)

Tests used:
[1] = Antiproliferative activity against mouse BA/F3 cells assessed as cell viability after 72 hrs by CellTiter-Glo or CCK-8 assay; format: cell-based, BaF3
K562 = assay: Antiproliferative activity against human K562 cells assessed as cell viability after 72 hrs by CellTiter-Glo or CCK-8 assay; format: functional; conditions: K562, 72 h
[2] = target: Transcription factor ETV6/Tyrosine-protein kinase ABL1 (Homo sapiens) (UniProt P00519+P41212); conditions: BaF3
Transcription factor ETV6/Tyrosine-protein kinase ABL1 (Homo sapiens), sequence (P00519 whole entry, looked up, the tested form may be a part): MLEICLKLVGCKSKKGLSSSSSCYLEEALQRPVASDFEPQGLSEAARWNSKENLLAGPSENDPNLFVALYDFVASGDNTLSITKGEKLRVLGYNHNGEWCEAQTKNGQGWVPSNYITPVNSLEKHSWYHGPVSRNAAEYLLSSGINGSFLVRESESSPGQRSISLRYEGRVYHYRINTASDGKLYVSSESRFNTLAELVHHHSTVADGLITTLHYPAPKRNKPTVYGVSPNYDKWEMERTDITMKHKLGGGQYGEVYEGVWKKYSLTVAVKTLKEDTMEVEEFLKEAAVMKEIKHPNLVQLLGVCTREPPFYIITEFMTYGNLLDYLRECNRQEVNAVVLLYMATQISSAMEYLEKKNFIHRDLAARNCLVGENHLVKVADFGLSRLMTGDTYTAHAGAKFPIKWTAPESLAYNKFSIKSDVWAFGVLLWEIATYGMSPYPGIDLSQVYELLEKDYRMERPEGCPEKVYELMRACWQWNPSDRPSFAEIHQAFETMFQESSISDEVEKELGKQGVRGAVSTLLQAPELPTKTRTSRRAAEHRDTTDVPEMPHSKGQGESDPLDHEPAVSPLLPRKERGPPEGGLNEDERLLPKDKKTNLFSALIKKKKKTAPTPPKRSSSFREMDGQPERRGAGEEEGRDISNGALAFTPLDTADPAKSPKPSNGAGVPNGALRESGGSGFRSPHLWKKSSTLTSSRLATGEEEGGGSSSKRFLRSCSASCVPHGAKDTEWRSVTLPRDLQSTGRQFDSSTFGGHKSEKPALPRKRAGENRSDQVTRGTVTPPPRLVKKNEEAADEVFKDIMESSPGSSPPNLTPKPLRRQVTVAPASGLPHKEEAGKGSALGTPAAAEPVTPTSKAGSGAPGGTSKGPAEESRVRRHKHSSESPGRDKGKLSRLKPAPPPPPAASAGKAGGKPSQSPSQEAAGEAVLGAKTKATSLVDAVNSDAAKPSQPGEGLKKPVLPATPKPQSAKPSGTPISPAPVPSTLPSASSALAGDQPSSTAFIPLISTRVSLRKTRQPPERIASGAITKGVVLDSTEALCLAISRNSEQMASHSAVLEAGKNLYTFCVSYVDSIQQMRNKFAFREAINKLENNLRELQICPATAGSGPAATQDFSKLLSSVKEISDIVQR
Transcription factor ETV6/Tyrosine-protein kinase ABL1 (Homo sapiens), sequence (P41212 whole entry, looked up, the tested form may be a part): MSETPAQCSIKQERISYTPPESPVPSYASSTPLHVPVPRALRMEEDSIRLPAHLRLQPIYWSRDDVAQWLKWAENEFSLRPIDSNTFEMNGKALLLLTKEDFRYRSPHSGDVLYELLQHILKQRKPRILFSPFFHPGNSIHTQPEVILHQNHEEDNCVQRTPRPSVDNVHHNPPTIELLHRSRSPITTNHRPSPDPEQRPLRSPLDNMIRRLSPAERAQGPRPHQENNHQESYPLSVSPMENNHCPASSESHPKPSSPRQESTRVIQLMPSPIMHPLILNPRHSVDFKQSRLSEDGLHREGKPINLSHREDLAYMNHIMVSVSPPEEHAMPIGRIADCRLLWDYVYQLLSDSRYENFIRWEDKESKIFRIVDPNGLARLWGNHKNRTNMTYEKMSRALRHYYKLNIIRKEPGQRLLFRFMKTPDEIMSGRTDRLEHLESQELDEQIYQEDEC
Description: Inhibition of Tel-ABL (unknown origin) expressed in mouse BA/F3 cells assessed as cell growth inhibition after 72 hrs by CellTiter-Glo or CCK-8 assay

[3] = target: Bcr/Abl fusion protein (Homo sapiens) (UniProt P00519+P11274); conditions: BaF3
Bcr/Abl fusion protein (Homo sapiens), sequence (P00519 whole entry, looked up, the tested form may be a part): as the sequence (P00519 whole entry, looked up, the tested form may be a part) above
Bcr/Abl fusion protein (Homo sapiens), sequence (P11274 whole entry, looked up, the tested form may be a part): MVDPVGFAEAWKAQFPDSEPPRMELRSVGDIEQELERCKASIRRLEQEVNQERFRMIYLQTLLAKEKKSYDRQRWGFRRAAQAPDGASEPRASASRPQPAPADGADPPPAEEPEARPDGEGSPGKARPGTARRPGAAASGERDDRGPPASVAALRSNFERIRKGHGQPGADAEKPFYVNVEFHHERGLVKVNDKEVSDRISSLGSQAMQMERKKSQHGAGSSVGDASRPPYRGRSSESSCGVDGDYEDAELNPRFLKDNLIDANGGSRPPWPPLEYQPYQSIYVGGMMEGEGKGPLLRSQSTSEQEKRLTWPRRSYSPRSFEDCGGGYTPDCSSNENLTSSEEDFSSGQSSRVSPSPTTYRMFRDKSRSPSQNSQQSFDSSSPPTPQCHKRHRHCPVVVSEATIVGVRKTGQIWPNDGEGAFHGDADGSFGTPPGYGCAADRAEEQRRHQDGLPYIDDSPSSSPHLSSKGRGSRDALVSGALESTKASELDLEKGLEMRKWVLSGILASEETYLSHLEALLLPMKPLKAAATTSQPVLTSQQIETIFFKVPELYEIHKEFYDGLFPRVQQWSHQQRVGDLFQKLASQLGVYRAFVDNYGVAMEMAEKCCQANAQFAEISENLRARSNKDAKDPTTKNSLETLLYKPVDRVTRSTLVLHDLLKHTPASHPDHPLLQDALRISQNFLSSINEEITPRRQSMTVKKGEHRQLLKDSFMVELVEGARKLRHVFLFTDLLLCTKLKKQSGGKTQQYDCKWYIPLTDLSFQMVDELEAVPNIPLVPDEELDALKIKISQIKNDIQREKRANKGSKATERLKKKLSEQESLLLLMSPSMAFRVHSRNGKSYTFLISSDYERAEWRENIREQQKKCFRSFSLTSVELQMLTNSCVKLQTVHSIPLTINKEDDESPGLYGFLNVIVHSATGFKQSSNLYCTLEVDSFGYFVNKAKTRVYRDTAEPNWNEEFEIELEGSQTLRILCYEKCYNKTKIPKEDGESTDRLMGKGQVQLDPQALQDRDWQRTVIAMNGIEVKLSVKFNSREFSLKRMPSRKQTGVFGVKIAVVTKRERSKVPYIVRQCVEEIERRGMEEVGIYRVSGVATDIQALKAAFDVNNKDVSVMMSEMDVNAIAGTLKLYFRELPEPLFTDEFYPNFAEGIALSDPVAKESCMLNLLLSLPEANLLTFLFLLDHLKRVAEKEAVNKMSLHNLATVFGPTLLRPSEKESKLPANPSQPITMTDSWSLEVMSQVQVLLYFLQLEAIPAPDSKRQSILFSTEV
Description: Inhibition of BCR/ABL p210 (unknown origin) expressed in mouse BA/F3 cells assessed as growth inhibition after 72 hrs by CellTiter-Glo or CCK-8 assay

| SMILES | GI50 at 72 h [1] | GI50 (K562) | GI50 [2] | GI50 [3] |
| --- | --- | --- | --- | --- |
| CNc1nc(Nc2ccc(C)c(N)c2)ncc1C(=O)Nc1cc(NC(=O)c2ccc(OC)c(OC)c2)ccc1C | > 10000 nM | 380 nM | 1100 nM | 1600 nM |
| CNc1nc(Nc2ccc(C)c(N)c2)ncc1C(=O)Nc1cc(NC(=O)c2cc(OC)c(OC)c(OC)c2)ccc1C | > 10000 nM | 250 nM | 445 nM | 670 nM |
| CNc1nc(Nc2ccc(C)c(N)c2)ncc1C(=O)Nc1cc(NC(=O)c2ccccc2OC)ccc1C | > 10000 nM | 1980 nM | 5200 nM | 6400 nM |
| Cc1cc(C)cc(C(=O)Nc2ccc(C)c(N3Cc4cnc(Nc5ccc(C)c(N)c5)nc4N(C)C3=O)c2)c1 | > 10000 nM | 26 nM | 31 nM | 42 nM |
| CNc1nc(Nc2ccc(C)c([N+](=O)[O-])c2)ncc1C(=O)Nc1cc(NC(=O)c2ccc(OC)c(OC)c2)ccc1C | 7300 nM | 680 nM | 1400 nM | 1600 nM |
| Cc1ccc(NC(=O)c2cccc(C(F)(F)F)c2)cc1N1Cc2cnc(NC3CCN(C(=O)OC(C)(C)C)CC3)nc2N(C)C1=O | 7520 nM | 18 nM | 105 nM | 55 nM |
| Cc1ccc(Nc2ncc3c(n2)N(C)C(=O)N(c2cc(NC(=O)c4cccc(C(F)(F)F)c4)ccc2C)C3)cc1C | 3760 nM | 17 nM | 61 nM | 66 nM |
| CNc1nc(Nc2ccc(C)c([N+](=O)[O-])c2)ncc1C(=O)Nc1cc(NC(=O)c2cccc(C(F)(F)F)c2)ccc1C | > 10000 nM | 52 nM | 87 nM | 36 nM |
| Cc1ccc(Nc2ncc(C(=O)Nc3cc(NC(=O)c4cccc(C(F)(F)F)c4)ccc3C)c(N(C)C)n2)cc1N | > 10000 nM | 1210 nM | 1030 nM | 1850 nM |
| Cc1ccc(NC(=O)c2cccc(C(F)(F)F)c2)cc1N1Cc2cnc(OC3CCN(C(=O)OC(C)(C)C)CC3)nc2N(C)C1=O | > 10000 nM | 29 nM | 288 nM | 132 nM |
| Cc1ccc(Nc2ncc3c(n2)N(C)C(=O)N(c2cc(NC(=O)c4cc(C(C)(C)C)cc(C(C)(C)C)c4)ccc2C)C3)cc1N | > 10000 nM | 1300 nM | 96 nM | 120 nM |
| Cc1ccc(NC(=O)c2cccc(C(F)(F)F)c2)cc1NC(=O)c1cnc(Nc2ccc(C)c([N+](=O)[O-])c2)nc1N(C)C | > 10000 nM | > 10000 nM | > 10000 nM | > 10000 nM |
| Cc1ccc(Nc2ncc3c(n2)N(C)C(=O)N(c2cc(NC(=O)c4cccc(C(F)(F)F)c4)ccc2C)C3)cc1 | 8000 nM | 18 nM | 50 nM | 19 nM |
| Cc1ccc(Nc2ncc3c(n2)N(C)C(=O)N(c2cc(NC(=O)c4cccc(C(F)(F)F)c4)ccc2C)C3)cn1 | 120 nM | 9 nM | – | – |
| CNc1nc(Nc2ccc(C)c([N+](=O)[O-])c2)ncc1C(=O)Nc1cc(NC(=O)c2ccc(OC)cc2)ccc1C | > 10000 nM | 1530 nM | 2900 nM | 3600 nM |
| Cc1ccc(Nc2ncc3c(n2)N(C)C(=O)N(c2cc(NC(=O)c4cccc(-c5ccccc5)c4)ccc2C)C3)cc1N | > 10000 nM | 23 nM | 39 nM | 46 nM |
| CNc1nc(Nc2ccc(C)c([N+](=O)[O-])c2)ncc1C(=O)Nc1cc(NC(=O)c2cc(OC)cc(OC)c2)ccc1C | > 10000 nM | 1070 nM | 2030 nM | 294 nM |
| Cc1ccc(Nc2ncc3c(n2)N(C)C(=O)N(c2cc(NC(=O)c4cccc(C(F)(F)F)c4)ccc2C)C3)cc1N | 440 nM | 3 nM | 5 nM | 5 nM |
| CNc1nc(Nc2ccc(C)c([N+](=O)[O-])c2)ncc1C(=O)Nc1cc(NC(=O)c2ccccc2OC)ccc1C | > 10000 nM | > 10000 nM | > 10000 nM | > 10000 nM |

| SMILES | GI50 at 72 h [1] | GI50 (K562) | GI50 [2] | GI50 [3] |
| --- | --- | --- | --- | --- |
| CNc1nc(Nc2ccc(C)c(N)c2)ncc1C(=O)Nc1cc(NC(=O)c2cc(OC)cc(OC)c2)ccc1C | > 10000 nM | 230 nM | 628 nM | 311 nM |
| Cc1cccc(C(=O)Nc2ccc(C)c(N3Cc4cnc(Nc5ccc(C)c(N)c5)nc4N(C)C3=O)c2)c1 | > 10000 nM | 68.8 nM | 6 nM | 14 nM |
| CNc1nc(Nc2ccc(C)c([N+](=O)[O-])c2)ncc1C(=O)Nc1cc(NC(=O)c2ccc3c(c2)OCO3)ccc1C | > 10000 nM | 499 nM | 1290 nM | 214 nM |
| Cc1ccc(NC(=O)c2cccc(C(F)(F)F)c2)cc1N1Cc2cnc(O[C@H]3CCNC3)nc2N(C)C1=O | > 10000 nM | 450 nM | 1380 nM | 1260 nM |
| Cc1ccc(Nc2ncc(C(=O)Nc3cc(NC(=O)c4cccc(C(F)(F)F)c4)ccc3C)cn2)cc1N | > 10000 nM | 330 nM | 590 nM | 470 nM |
| Cc1ccc(NC(=O)c2cccc(C(F)(F)F)c2)cc1N1Cc2cnc(NCCCN3CCOCC3)nc2N(C)C1=O | 5600 nM | 7 nM | 9 nM | 15 nM |
| CNc1nc(Nc2ccc(C)c(N)c2)ncc1C(=O)Nc1cc(NC(=O)c2ccc3c(c2)OCO3)ccc1C | > 10000 nM | 353 nM | 570 nM | 124 nM |
| Cc1ccc(NC(=O)c2cccc(C(F)(F)F)c2)cc1N1Cc2cnc(Nc3ccc(C)c(C(F)(F)F)c3)nc2N(C)C1=O | > 10000 nM | 29 nM | 185 nM | 67 nM |
| Cc1ccc(Oc2ncc3c(n2)N(C)C(=O)N(c2cc(NC(=O)c4cccc(C(F)(F)F)c4)ccc2C)C3)cc1N | > 10000 nM | 13 nM | 15 nM | 32 nM |
| CNc1nc(Nc2ccc(C)c(N)c2)ncc1C(=O)Nc1cc(NC(=O)c2ccc(OC)cc2)ccc1C | > 10000 nM | 610 nM | 1300 nM | 2100 nM |
| CNc1nc(Nc2ccc(C)c(N)c2)ncc1C(=O)Nc1cc(NC(=O)c2cccc(OC)c2)ccc1C | > 10000 nM | 330 nM | 524 nM | 570 nM |
| Cc1ccc(NC(=O)c2cccc(C(F)(F)F)c2)cc1N1Cc2cnc(O[C@H]3CCN(C(=O)OC(C)(C)C)C3)nc2N(C)C1=O | 8380 nM | 30 nM | 292 nM | 126 nM |
| Cc1ccc(Nc2ncc3c(n2)N(C)C(=O)N(c2cc(NC(=O)c4cccc(C(F)(F)F)c4)ccc2C)C3)cc1N(C)C | > 10000 nM | 28 nM | 42 nM | 30 nM |
| CNc1cc(Nc2ncc3c(n2)N(C)C(=O)N(c2cc(NC(=O)c4cccc(C(F)(F)F)c4)ccc2C)C3)ccc1C | > 10000 nM | 19 nM | 20 nM | 14 nM |
| CNc1nc(Nc2ccc(C)c([N+](=O)[O-])c2)ncc1C(=O)Nc1cc(NC(=O)c2ccc3c(c2)OCCO3)ccc1C | > 10000 nM | 320 nM | 4240 nM | 4100 nM |
| Cc1ccc(NC(=O)c2cccc(C(F)(F)F)c2)cc1N1Cc2cnc(OC3CCNCC3)nc2N(C)C1=O | > 10000 nM | 220 nM | 2040 nM | 2700 nM |
| Cc1ccc(NC(=O)c2cccc(C(F)(F)F)c2)cc1N1Cc2cnc(NC3CCNCC3)nc2N(C)C1=O | 3000 nM | 19 nM | 100 nM | 150 nM |
| CNc1nc(Nc2ccc(C)c(N)c2)ncc1C(=O)Nc1cc(NC(=O)c2ccc3c(c2)OCCO3)ccc1C | > 10000 nM | 320 nM | 787 nM | 1100 nM |
| Cc1ccc(NC(=O)c2cccc(C(F)(F)F)c2)cc1NC(=O)c1cnc(Nc2ccc(C)c([N+](=O)[O-])c2)nc1 | 8700 nM | 380 nM | 1400 nM | 1200 nM |
